Laboratory results from patent US8546338B2, “Self-assembling hydrogels based on dicephalic peptide amphiphiles” (Johnson & Johnson Consumer Companies, Inc., priority 2010, dated 2013).

Legend:
[1] = Dissolution of DPA in ultrapure water; format: physicochemical; details: ultrapure water (>18 MΩ resistivity)
Procedure: (§1) Inversion tests were performed to determine qualitatively under which conditions the various DPAs formed self-supporting hydrogels. The various types of DPAs were tested by dissolving them in ultrapure water (>18 MΩ resistivity) at double the desired final concentration followed by mixing in a 1:1 ratio with different liquid mediums. Gelation was deemed to have occurred if the gel supported its own weight upon inverting the vial (FIG. 3A and FIG. 3B). Gelation was tested at final concentrations of 1, 2 and 4 weight percent. We tested phosphate buffered saline (PBS), and Dulbecco's modified eagle media (DMEM) as liquid medium. Typical scale is 100 μl each of DPA solution in water and mixing medium but other scales have been tested. Finally, if no spontaneous gelation occurs, 10 μl of 100 mg/cc calcium chloride solution was added to induce gelation.

[2] = Gelation experiments: inversion test for self-supporting hydrogels; format: physicochemical; details: for Gelation (self-supporting gel on inversion), Calcium added: DMEM plus 10 μl of 100 mg/cc calcium chloride solution; for Concentration at which gel forms, Calcium added: DMEM with calcium chloride added; for Gelation (self-supporting gel on inversion), DMEM: DPA solution in water mixed 1:1 with DMEM, no calcium added; for Minimal concentration at which gel formed: in DMEM with calcium added; for Gelation (self-supporting gel on inversion), Water: in water, final concentrations 1, 2 and 4 weight percent tested
Procedure: as §1

[3] = Oscillating rheology, time sweep (kinetics of formation); format: physicochemical
Procedure: Oscillating rheology by the parallel plates method (radius=25 mm) was performed on 400 μl gels to assess the mechanical strengths of gels. Time sweeps were performed to evaluate kinetics of formation at a constant strain rate of 1% and frequency of 1 rad/s. Strain sweeps were performed ranging from 1-100% strain in increments of 2% at a constant frequency of 1 rad/s. Cross-over of G′ and G″ was used to determine the gel point and point of breakdown. Time sweeps were initiated immediately after mixing the solutions that lead to DPA hydrogel formation. In the strain sweeps, the gels were allowed to form on the plate for 30 minutes before the measurement is initiated.
The gelation process was initiated on the plate at 25° C. by the addition of 10 μl of 100 mg/ml calcium chloride solution to a solution of the DPA in DMEM.

[4] = Cell viability of encapsulated hUTCs in DPA gels (Live/Dead); format: cell-based, human; details: human, human umbilical cord cells (hUTCs) encapsulated in DPA gel; 2% DPA, 100,000 cells, calcium chloride added, after 7 days of culture, Live/Dead; read-out: Viability of hUTC cells in the gels
Procedure: The viability and proliferation of cells in the gels was evaluated by encapsulating human umbilical cord cells (hUTCs) in the gels. hUTCs were isolated as described in U.S. Pat. No. 7,510,873. Cells were thawed from storage and cultured for four days in Hayflick media. After four days, the cells were trypsinized and counted by the Guava ViaCount methodology (Millipore, Billerica, Mass.). Cells were re-suspended in Hayflick media at a density of 1,000,000 cells/ml. Encapsulation of the cells in the gels was achieved by adding 100 μl cell suspension to 100 μl of a 4 wt % DPA solution in ultrapure in a 24 well plate, resulting in a final DPA concentration of 2%. The gels were incubated for 1 h at 37° C., 5% CO2 after which 1000 μl media was added on top of the gel. Cells were incubated at 37° C., 5% CO2. Every 3-4 days of culture, 500 μl media was replaced.
After mixing of the cell suspension and 4% DPA solution by pipetting up and down, the protocol described above was modified by adding 10 μl 100 mg/ml calcium chloride solution upon which gelation occurred. Final concentrations are 2% in DPA and 100,000 cells. Control gels without cells were prepared by using pure media and additional cell only and cells with calcium chloride controls were prepared as standard 2D culture. After 7 days of culture, the gels were assayed with Live/Dead assay for cell viability and Invitrogen CyQuant GR assay for cell proliferation (Invitrogen, Carlsbad, Calif.). The Live/Dead was performed as described in the provided protocol but at half the […] concentration to reduce non-specific fluorescence due to dye absorption. […] The cells in the gels contained a lot of viable cells (FIG. 410). No dead cells could be observed in the gels. Therefore, the viability of these cells in the gels is very high (>95%).
In a second experiment, 100,000 hUTC cells were encapsulated in 2 wt % Gly-Phe-Gly-Phe-Gly-Phe-Gly-Gln-Gln-Ser (SEQ ID NO: 8) DPA gels. The cells were cultured for 3 weeks and cells were assessed after 1, 2 and 3 weeks with Live/Dead.

Sprague-Dawley rats = test: Biocompatibility study, gel injected into intra-gluteal muscle pocket; format: in vivo; details: rat; for Tissue response (histology): harvest at 3, 7 and 28 days
Procedure: A biocompatibility study was performed on Gly-Val-Ala-Val-Ala-Val-Ala-Glu-Gly-Glu (SEQ ID NO: 4), Gly-Phe-Gly-Phe-Gly-Phe-Gly-Glu-Gly-Glu (SEQ ID NO: 5) and Gly-Phe-Gly-Phe-Gly-Phe-Gly-Gln-Gln-Ser (SEQ ID NO: 8) DPAs. Lyophilized DPA powders were e-beam sterilized in 1.5 cc polypropylene cryovials at 15 KGy. Gels were pre-formed in 1 cc syringes by mixing a 4 wt % DPA solution in water for injection in a 1:1 ratio with DMEM followed by immediate aspiration into the syringe. In the case of the formulations with the Glu-Gly-Glu (SEQ ID NO: 27) sequence in the solubility enhancing region, 10 μl of a sterile 100 mg/cc calcium chloride solution was mixed in before aspiration into the syringe. An intra-gluteal muscle pocket was created in Sprague-Dawley rats after which 100 μl of gel was injected using a catheter fitted to the syringe. Subsequently, the pocket was closed with polyglactin 910 sutures sold under the tradename VICRYL (Ethicon, Somerville, N.J.). Tissue was harvested at 3, 7 and 28 days after implantation.

[5] = Titration of DPA acid groups with calcium ions; format: physicochemical; details: calcium titrated down from 16 to 1 equivalent by halving
Source text: The […] (SEQ ID NO: 3) DPA was titrated with calcium ions to determine the number of acid groups that required ion complexation in order for gelation to occur. Theoretically, there are eight acid groups (four per head group) that could be involved in the gelation process (FIG. 4).

[6] = 2 wt % DPA in DMEM, calcium chloride added, 25° C.

Row | Solubility in ultrapure water [1] | SMILES | Gelation (self-supporting gel on inversion), Calcium added [2] | Concentration at which gel forms, Calcium added [2] [wt %] | Gelation (self-supporting gel on inversion), DMEM [2] | Minimal concentration at which gel formed [2] [weight percent] | Gelation (self-supporting gel on inversion), Water [2] | G′ after 10 minutes [3, 6] | also measured
1 | could not be solubilized | CCCCCCCCCCCCCCCC(=O)NC(C(=O)N[C@@H](Cc1ccccc1)C(=O)NCC(=O)N[C@@H](Cc1ccccc1)C(=O)NCC(=O)N[C@@H](Cc1ccccc1)C(=O)NCC(=O)N[C@@H](CCCCN)C(=O)N[C@@H](C)C(=O)O)C(=O)N[C@@H](Cc1ccccc1)C(=O)NCC(=O)N[C@@H](Cc1ccccc1)C(=O)NCC(=O)N[C@@H](Cc1ccccc1)C(=O)NCC(=O)N[C@@H](CCCCN)C(=O)N[C@@H](C)C(=O)O [Phe-Gly-Phe-Gly-Phe-Gly-Lys-Ala] | – | – | – | – | – | – | –
2 | – | CCCCCCCCCCCCCCCC(=O)NC(C(=O)NCC(=O)N[C@@H](Cc1ccccc1)C(=O)NCC(=O)N[C@@H](Cc1ccccc1)C(=O)NCC(=O)N[C@@H](Cc1ccccc1)C(=O)NCC(=O)N[C@@H](CCC(=O)O)C(=O)NCC(=O)N[C@@H](CCC(=O)O)C(=O)O)C(=O)NCC(=O)N[C@@H](Cc1ccccc1)C(=O)NCC(=O)N[C@@H](Cc1ccccc1)C(=O)NCC(=O)N[C@@H](Cc1ccccc1)C(=O)NCC(=O)N[C@@H](CCC(=O)O)C(=O)NCC(=O)N[C@@H](CCC(=O)O)C(=O)O [Gly-Phe-Gly-Phe-Gly-Phe-Gly-Glu-Gly-Glu] | Yes | 1 | No | 1 | No | 4,000 Pa | G′ after 10 minutes ([3]; 1 wt % DPA in DMEM, calcium chloride added, 25° C.): 300 Pa; Estimated final strength (extrapolation of the curve) ([3]; 2 wt % DPA in DMEM, calcium chloride added): ~10,000 Pa; G′ (strength) after 1 hour [3, 6]: 7,200 Pa; G′ after temperature raised to 37° C. ([3]; 2 wt % DPA, after 1 hour, temperature raised from 25° C. to 37° C.): 5,000 Pa; viability at 168 h [4]: > 95%; Gross observations (Sprague-Dawley rats; in vivo): some fluid buildup at day 3
3 | – | CCCCCCCCCCCCCCCC(=O)NC(C(=O)N[C@H](C(=O)N[C@@H](C)C(=O)N[C@H](C(=O)N[C@@H](C)C(=O)N[C@H](C(=O)N[C@@H](C)C(=O)N[C@@H](CCC(=O)O)C(=O)N[C@@H](CCC(=O)O)C(=O)N[C@@H](CCC(=O)O)C(=O)O)C(C)C)C(C)C)C(C)C)C(=O)N[C@H](C(=O)N[C@@H](C)C(=O)N[C@H](C(=O)N[C@@H](C)C(=O)N[C@H](C(=O)N[C@@H](C)C(=O)N[C@@H](CCC(=O)O)C(=O)N[C@@H](CCC(=O)O)C(=O)N[C@@H](CCC(=O)O)C(=O)O)C(C)C)C(C)C)C(C)C [Val-Ala-Val-Ala-Val-Ala-Glu-Glu-Glu] | Yes | 2 | No | 2 | No | – | Transition point between stable gel formation and no or weak gel formation [5]: between two and one equivalent of calcium
4 | could not be solubilized | CCCCCCCCCCCCCCCC(=O)NC(C(=O)N[C@H](C(=O)N[C@@H](C)C(=O)N[C@H](C(=O)N[C@@H](C)C(=O)N[C@H](C(=O)N[C@@H](C)C(=O)N[C@@H](CCCCN)C(=O)N[C@@H](C)C(=O)O)C(C)C)C(C)C)C(C)C)C(=O)N[C@H](C(=O)N[C@@H](C)C(=O)N[C@H](C(=O)N[C@@H](C)C(=O)N[C@H](C(=O)N[C@@H](C)C(=O)N[C@@H](CCCCN)C(=O)N[C@@H](C)C(=O)O)C(C)C)C(C)C)C(C)C [Val-Ala-Val-Ala-Val-Ala-Lys-Ala] | – | – | – | – | – | – | –
5 | – | CCCCCCCCCCCCCCCC(=O)NC(C(=O)NCC(=O)N[C@H](C(=O)N[C@@H](C)C(=O)N[C@H](C(=O)N[C@@H](C)C(=O)N[C@H](C(=O)N[C@@H](C)C(=O)N[C@@H](CCC(=O)O)C(=O)NCC(=O)N[C@@H](CCC(=O)O)C(=O)O)C(C)C)C(C)C)C(C)C)C(=O)NCC(=O)N[C@H](C(=O)N[C@@H](C)C(=O)N[C@H](C(=O)N[C@@H](C)C(=O)N[C@H](C(=O)N[C@@H](C)C(=O)N[C@@H](CCC(=O)O)C(=O)NCC(=O)N[C@@H](CCC(=O)O)C(=O)O)C(C)C)C(C)C)C(C)C [Gly-Val-Ala-Val-Ala-Val-Ala-Glu-Gly-Glu] | Yes | 2 | No | 2 | No | 140 Pa | viability at 168 h, 2 % [4]: > 95%; Gross observations (Sprague-Dawley rats; 100 μl gel, intra-gluteal muscle pocket, day 3, no longer observed at other time points): some fluid buildup at day 3; Tissue response (histology) (Sprague-Dawley rats; 100 μl gel, intra-gluteal muscle pocket): some necrosis of the underlying tissue layer was observed; Tissue response (histology) (Sprague-Dawley rats; 100 μl gel, intra-gluteal muscle pocket, listed as Val-Ala-Val-Ala-Val-Ala-Glu-Gly-Glu (SEQ ID NO: 39)): necrosis of the underlying muscle tissue
